The subject of one data set is SPP1 promoter. In words: Dual-Glo luciferase reporter screen of SPP1 promoter activity (LOPAC library). Type of data set: cell-based. The text has this:
(A) Schematic representation of the DuoGlo construct used for high throughput compound screening. (B-C) SPP1 promoter activity after exposure of WM858 Dual-Glo cells to Vitamin D (B) or retinoid (C).
(§1) SPP1 is a pro-inflammatory inducer of skin fibrosis and skin aging. […] To screen for transcriptional silencers of SPP1 expression, cells with high endogenous SPP1 expression (e.g., melanoma cells) were identified. Then, the endogenous SPP1 promoter was tagged in melanoma cells with a dual luciferase reporter to create Dual-Glo cells using a genome editing approach. Firefly luciferase was introduced to assay SPP1 promoter activity; renilla luciferase was coupled to the CMV promoter as a loading control (FIG. 1A).
A general note: In a reporter assay the amount or activity of a reporter protein is the signal.

For data set [1] the following is noted: cited from earlier work.
The test system of data set [2] is hypertrophic scar formation. As to the kind of experiment: hypertrophic scar formation, ischemic rabbit ear model, topical treatment. Type of data set: in vivo. How it is done:
Topical pentamidine was evaluated using a hypertrophic scar formation rabbit ear model. Briefly, surgical ligation of leporine auricular vessels induced an ischemic landscape for hypertrophic scar production. Specifically, a cranial artery and vein were ligated; the caudal artery and vein were preserved; and the central artery was ligated, while the central vein was preserved in the rabbit ear (FIG. 2).
All surgeries were conducted in a disinfected area designated for surgical procedures and equipped with necessary lighting and equipment. Briefly, rabbits received intramuscular buprenorphine and enrofloxicin (5-10 mg/kg) prior to the surgery. Anesthesia was induced by a mixture of ketamine and intramuscular xylazine and monitored by medical sciences support staff. Study staff performed surgeries using sterile instruments, drapes, gloves, and gown. Following vascular ligation, one linear full-thickness skin wound was created on the ventral side of each ear with a surgical blade. The skin and perichondrium were removed. The base on which granulation and epithelialization take place was the cartilage. The edges of the wound were closed with 4-0 Nylon sutures.
Following ischemic wounding, the relative ischemia created in the ear at time of surgery and time of sacrifice was assessed with a fluorescent light assisted angiography (Spy Elite, LifeCell). Perfusion of the ear was assessed using the Spy Elite system following intravenous administration of indocyanine green, which utilizes infrared light to detect the dye (FIG. 3).
Following vascular ligation and linear wounding, a sterile occlusive dressing (TegaDerm, 3M) was used to cover the wound site. Animals were allowed to recover for three days without wound disturbance. After 72 hours, the dressing was changed, and the treatment was initiated. […] Daily dressing changes occurred until day 28. About 1/8 teaspoon ([…]) of the treatment agent was applied with each dressing change. Rabbits were trained on the animal snuggler for ease during treatment application.
Animals were monitored daily for any signs of postoperative discomfort, wound infection, weight loss, loss of appetite, and loss of contracture fixation. Any complications such as cage sores, wound infections, weight loss, or wound dehiscence were reviewed with the veterinarian and managed in a way designed to minimize discomfort or suffering. […] Six rabbits were used in this study. For three rabbits, the left ear received Treatment Group 1 (n=3), and the right ear received Treatment Group 2 (n=3). […] One rabbit was excluded from the study due to wound infection:
(§2) Female New Zealand white rabbit ears were used. In total, twelve linear wounds were created using minimally invasive vascular ligation in auricular blood vessels to create ischemic hypertrophic scars. Following surgical ligation, linear wounds were treated with either osteopontin inhibitor 2% topical pentamidine (n=6; left ear) or base only (n=6; right ear) for four weeks. After the treatment period, samples were fixed in 10% formaldehyde, embedded in paraffin and stained for p16 expression.
Female New Zealand white rabbits ears were used. In total, twelve linear wounds were created using minimally invasive vascular ligation in auricular blood vessels to create ischemic hypertrophic scars. Following surgical ligation, linear wounds were treated with the following dose titration: 0.5% pentamidine (n=3); 1% pentamidine (n=3); 2% pentamidine (n=3); or 5% pentamidine (n=3). […]

The subject of another data set is WM858 Dual-Glo cells. As to the kind of experiment: in vitro cell toxicity in the SPP1 screen. It counts as cell-based. The following applies: in the SPP1 promoter screen.
From the text: as §1

In another data set the test system is p16. In words: p16 expression staining in rabbit ear skin after topical treatment. The following applies: 2% topical pentamidine versus base only, four weeks, n=6 per group. Type of data set: in vivo. On the procedure:
as §2

Entries after “also recorded” stand apart in the source; their conditions may differ.

Consider Vitamin D, for which, in the data set with SPP1 promoter (WM858 Dual-Glo cells), the “effect on SPP1 promoter activity” value is “activated”.
On to `N=C(N)c1ccc(OCCCCCOc2ccc(C(=N)N)cc2)cc1` [Pentamidine isethionate, 4,4-[1,5-pentanediylbis(oxy)]bis-benzenecarboximidamid], for which, in data set [1] (acetone), the solubility in acetone result is given as “insoluble”. Also, the solubility in alcohol result in data set [1] (alcohol) is “soluble”. Also, in data set [1] (chloroform), the solubility in chloroform result is “insoluble”. In addition, the solubility in ether result in data set [1] (ether) is listed as “insoluble”. Also, the solubility in glycerin result in data set [1] (glycerin) is “soluble”. In data set [1] (water), the solubility in water result is “soluble”.
Take `N=C(N)c1ccc(OCCCCCOc2ccc(C(=N)N)cc2)cc1` [pentamidine, 4,4′-[pentane-1,5-diylbis(oxy)]dibenzenecarboximidamide]: the hypertrophic scar formation entry in data set [2] (0.5% pentamidine, n=3) was “no response to minimal reduction”; in data set [2] (1% pentamidine, n=3), “no response to minimal reduction”; in data set [2] (2% pentamidine in Pracasil-Plus base, daily, four weeks), “Minimal hypertrophic scaring; also recorded: significantly inhibited hypertrophic scar formation; also recorded: observable scar reduction”. The “re-epithelization of the wound” value in data set [2] (2% pentamidine, n=3) is listed as “Effective re-epithelization”. Moreover, in data set [2] (5% pentamidine, n=3), the “wound outcome at high dose” value was “non-healing wound and abscess formation”. Also, the “in vitro cell toxicity” value with WM858 Dual-Glo cells is recorded as “minimal in vitro cell toxicity”. For the same compound, the “inhibition of SPP1 promoter activity” value with SPP1 promoter (Dual-Glo melanoma cells, firefly luciferase at the SPP1 promoter, renilla/CMV as loading control) was “greater than 80%”. In addition, the “p16 expression levels in dermal and epidermal regions” value with p16 is recorded as “decreased p16 levels; also recorded: reduced p16 expression levels”.

The values are drawn from patent US20200038348A1, “METHODS AND MATERIALS FOR REDUCING SCAR FORMATION DURING WOUND HEALING” (Mayo Foundation for Medical Education and Research, priority 2017, published 2020).
